Test system: 253994-281-T-J1-PDC KRAS-mutant spheroids with HUVEC/MSC, viability
Experiment: Anticancer human tumor 253994-281-T-J1-PDC patient-derived colorectal carcinoma cell line growth inhibition [KRAS2]
Details: for IC50: curve of first compound; for viability, T/C: stronger effect = lower value
In short: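 Combination screen of spheroid viability in tumor-cell co-cultures with endothelial (HUVEC) and mesenchymal stem cell stroma. Each agent was tested in half-log dilutions, topping at clinical Cmax or at 10 microM without a known Cmax.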

[1] = second compound 0.1 µM, first compound 0.0316 µM
[2] = second compound 0.1 µM, first compound 0.1 µM
[3] = second compound 0.1 µM, first compound 0.316 µM
[4] = second compound 0.1 µM, first compound 1 µM
[5] = second compound 0.316 µM, first compound 0.0316 µM
[6] = second compound 0.316 µM, first compound 0.1 µM
[7] = second compound 0.316 µM, first compound 0.316 µM
[8] = second compound 0.316 µM, first compound 1 µM
[9] = second compound 1 µM, first compound 0.0316 µM
[10] = second compound 1 µM, first compound 0.1 µM
[11] = second compound 1 µM, first compound 0.316 µM
[12] = second compound 1 µM, first compound 1 µM
[13] = second compound 3.16 µM, first compound 0.0316 µM
[14] = second compound 3.16 µM, first compound 0.1 µM
[15] = second compound 3.16 µM, first compound 0.316 µM
[16] = second compound 3.16 µM, first compound 1 µM
[17] = second compound 10 µM, first compound 0.0316 µM
[18] = second compound 10 µM, first compound 0.1 µM
[19] = second compound 10 µM, first compound 0.316 µM
[20] = second compound 10 µM, first compound 1 µM
[21] = second compound 0.1 µM, first compound 3.16 µM
[22] = second compound 0.1 µM, first compound 10 µM
[23] = second compound 0.316 µM, first compound 3.16 µM
[24] = second compound 0.316 µM, first compound 10 µM
[25] = second compound 1 µM, first compound 3.16 µM
[26] = second compound 1 µM, first compound 10 µM
[27] = second compound 3.16 µM, first compound 3.16 µM
[28] = second compound 3.16 µM, first compound 10 µM
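Further: spheroids exposed to agents for seven days before readout.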
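Wherever viability, T/C is given: percent of DMSO vehicle control viability.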

SMILES	IC50 (second compound 0.1 µM) [µM]	IC50 (second compound 0.316 µM) [µM]	IC50 (second compound 1 µM) [µM]	IC50 (second compound 3.16 µM) [µM]	viability, T/C [1] [%]	viability, T/C [2] [%]	viability, T/C [3] [%]	viability, T/C [4] [%]	viability, T/C [5] [%]	viability, T/C [6] [%]	viability, T/C [7] [%]	viability, T/C [8] [%]	viability, T/C [9] [%]	viability, T/C [10] [%]	viability, T/C [11] [%]	viability, T/C [12] [%]	viability, T/C [13] [%]	viability, T/C [14] [%]	viability, T/C [15] [%]	viability, T/C [16] [%]	further results
CCN1CCN(Cc2ccc(Nc3ncc(F)c(-c4cc(F)c5nc(C)n(C(C)C)c5c4)n3)nc2)CC1 + CNCc1ccccc1-c1csc(C(C)Nc2nc(C)nc3cc(OC)c(OC)cc23)c1	0.683	0.53	0.42	< 0.00316	84.1	78.7	71.4	39.8	73.5	85.5	64.7	31.4	78.2	76.3	62.5	13.5	36.4	20.3	11.9	0.18	IC50 (second compound 10 µM): < 0.00316 µM; viability, T/C (second compound 0.1 µM, first compound 0.00316 µM): 97.4%; viability, T/C (second compound 0.1 µM, first compound 0.01 µM): 82.5%; viability, T/C (second compound 0.316 µM, first compound 0.00316 µM): 101%; viability, T/C (second compound 0.316 µM, first compound 0.01 µM): 78%; viability, T/C (second compound 1 µM, first compound 0.00316 µM): 82.7%; viability, T/C (second compound 1 µM, first compound 0.01 µM): 82.2%; viability, T/C (second compound 3.16 µM, first compound 0.00316 µM): 44.8%; viability, T/C (second compound 3.16 µM, first compound 0.01 µM): 37%; viability, T/C (second compound 10 µM, first compound 0.00316 µM): 0.2%; viability, T/C (second compound 10 µM, first compound 0.01 µM): 0.39%; viability, T/C [17]: 0.19%; viability, T/C [18]: 0.14%; viability, T/C [19]: 0.34%; viability, T/C [20]: 0.22%
COc1cc(Nc2ncc3c(n2)-c2ccc(Cl)cc2C(c2c(F)cccc2OC)=NC3)ccc1C(=O)O + C=CC(=O)N1CCN(c2nc(=O)n(-c3c(C)ccnc3C(C)C)c3nc(-c4c(O)cccc4F)c(F)cc23)C(C)C1	> 10	> 10	> 10	> 10	87.4	48.2	57	62.5	96	53	45.6	65.8	87.2	57.4	47.2	56.9	89.2	61.8	48.5	59.1	IC50 (second compound 10 µM): > 10 µM; viability, T/C [21]: 70.2%; viability, T/C [22]: 73.6%; viability, T/C [23]: 68.9%; viability, T/C [24]: 67.7%; viability, T/C [25]: 72.2%; viability, T/C [26]: 76.2%; viability, T/C [27]: 70.8%; viability, T/C [28]: 82.4%; viability, T/C [17]: 91.9%; viability, T/C [18]: 55.1%; viability, T/C [19]: 52.1%; viability, T/C [20]: 69.6%; viability, T/C (second compound 10 µM, first compound 3.16 µM): 62.1%; viability, T/C (second compound 10 µM, first compound 10 µM): 67%
COc1cc2nccc(Oc3ccc(NC(=O)C4(C(=O)Nc5ccc(F)cc5)CC4)cc3)c2cc1OC + C=CC(=O)N1CCN(c2nc(OCC3CCCN3C)nc3c2CCN(c2cccc4cccc(C)c24)C3)CC1CC#N	> 10	> 10	7.14	0.166	101	101	80.4	79.5	97.8	99.5	89.6	97.6	97.1	96.5	84.8	92.2	62.7	65.5	34.6	20.4	IC50 (second compound 0.0316 µM): > 10 µM; viability, T/C (second compound 0.0316 µM, first compound 0.0316 µM): 88.8%; viability, T/C (second compound 0.0316 µM, first compound 0.1 µM): 104%; viability, T/C (second compound 0.0316 µM, first compound 0.316 µM): 81.8%; viability, T/C (second compound 0.0316 µM, first compound 1 µM): 91.1%; viability, T/C (second compound 0.0316 µM, first compound 3.16 µM): 92.2%; viability, T/C (second compound 0.0316 µM, first compound 10 µM): 69.8%; viability, T/C [21]: 87.6%; viability, T/C [22]: 71.1%; viability, T/C [23]: 87.5%; viability, T/C [24]: 50.3%; viability, T/C [25]: 88.9%; viability, T/C [26]: 33.9%; viability, T/C [27]: 18.9%; viability, T/C [28]: 0.21%

Reference: PubChem BioAssay AID1963874 (Molecular Pharmacology Branch, DTP, NCI, 2024)
